Measured values as given in patent publication US6413969B1, “Gatifloxacin pentahydrate” (Bristol-Myers Squibb Company, priority 2000, dated 2002).

Experiments:
[1] = aqueous solubility of the crystalline hydrates; type: physicochemical; conditions: for aqueous solubility (rank among the three major hydrates): water, 25° C., sesquihydrate, pentahydrate, hexahydrate compared
Excerpt: (§1) The crystal structures and ideal water content of seven of these forms were established through single crystal x-ray analyses. Each form gives rise to unique and characteristic single crystal and powder x-ray diffraction. The kinetic and thermodynamic relationships among the three major hydrates were investigated leading to the understanding of their stability order in water as a function of temperature and their interconversion relationship. […] The implications of these findings were very significant in the discovery and development of highly homogeneous gatifloxacin pentahydrate in accordance with the present invention. Further, these findings made it evident that very strict process controls were necessary in the production of crystalline gatifloxacin and dosage forms containing it and that it was necessary to obtain crystalline gatifloxacin pentahydrate in high homogeneity vs. the other crystalline forms in order to realize the advantageous properties thereof. By high homogeneity is meant that crystalline gatifloxacin pentahydrate must contain no detectable levels of the other crystalline forms thereof as determined by powder x-ray diffraction technique.

[2] = physical stability / interconversion of crystalline forms in water; type: physicochemical
Excerpt: as §1

[3] = stability studies under stressed conditions of temperature and humidity; type: physicochemical
Excerpt: It has been found in accordance with the present invention that the advantageous stability and solubility properties of the pentahydrate of gatifloxacin can be applied to the formulation of pharmaceutical dosage forms. While the pentahydrate of gatifloxacin can be utilized to prepare tablets by wet granulation, it can also be formulated in accordance with the present invention into stable pharmaceutical solid dosage forms by conventional dry granulation. […] Such formulations will include conventional inert ingredients such as binders, excipients, disintegrants, and the like. Examples of such agents include various starch derivatives such as pregelatinized starch, hydroxypropyl cellulose microcrystalline cellulose, sodium starch glycolate, magnesium stearate, lactose, mannitol and the like.

[4] = cited from earlier work
infections = conditions: cited from earlier work
[5] = parenterally and via oral administration; cited from earlier work
[6] = test system: broad spectrum of microorganisms including antibiotic-resistant strains of Streptococcus Pneumoniae; conditions: cited from earlier work

COc1c(N2CCNC(C)C2)c(F)cc2c(=O)c(C(=O)O)cn(C3CC3)c12 (stereo not drawn) [gatifloxacin pentahydrate, 1cyclopropyl-6-fluoro-1,4-dihydro-8-methoxy-7-(3-methyl-1-piperazinyl)-4-oxo-3-quinolinecarboxylic acid]
solubility compared with the metastable sesquihydrate ([1]; aqueous dosage forms): less soluble | aqueous solubility (rank among the three major hydrates) ([1]; listed as pentahydrate): lowest | physical stability of the crystalline form ([2]; compared with the other crystalline forms, conversion over time): most physically stable form | form change or other degradation [3]: no evidence of form change or other degradation

COc1c(N2CCNC(C)C2)c(F)cc2c(=O)c(C(=O)O)cn(C3CC3)c12 (stereo not drawn) [sesquihydrate]
aqueous solubility (rank among the three major hydrates) [1]: highest | disintegration and dissolution rates of tablets in comparison to the hemihydrate ([4]; tablets made from the crystalline form): superior disintegration and dissolution rates | stability in comparison to the hemihydrate ([4]; varying conditions of humidity): enhanced stability

COc1c(N2CCNC(C)C2)c(F)cc2c(=O)c(C(=O)O)cn(C3CC3)c12 (stereo not drawn) [hemihydrate]
tendency to form higher hydrates ([2]; in the presence of water): definite tendency to form higher hydrates

COc1c(N2CCNC(C)C2)c(F)cc2c(=O)c(C(=O)O)cn(C3CC3)c12 (stereo not drawn) [Gatifloxacin, 1-cyclopropyl-6-fluoro-1,4-dihydro-8-methoxy-7-(3-methyl-1piperizinyl)-4-oxo-3-quinolinecarboxylic acid]
overall tolerability (infections; in vivo): excellent overall tolerability | safety and efficacy in treatment of infections (infections; individuals with impaired liver function): safe and efficacious | efficacy [5]: excellent efficacy | effectiveness against microorganisms [6]: effective
